This is an account of results in patent US20220274954A1, “SUBSTITUTED N-PHENYL-N-AMINOUARCILS AND SALTS THEREOF AND USE THEREOF AS HERBICIDAL AGENTS” (Bayer Aktiengesellschaft, priority 2019, published 2022).

Type in all cases: in vivo
For one data set, the system named is Glycine max. Put plainly: Post-emergence crop plant compatibility. To be noted: application rate 1.25 g/ha. The method, then:
(§1) Seeds of monocotyledonous and dicotyledonous weeds and crop plants were placed in sandy loam in plastic or wood-fiber pots, covered with soil and cultivated in a greenhouse under controlled growth conditions. 2 to 3 weeks after sowing, the test plants were treated at the one-leaf stage. The compounds of the invention, formulated in the form of wettable powders (WP) or as emulsion concentrates (EC), were then sprayed onto the green parts of the plants as aqueous suspension or emulsion with addition of 0.5% additive at a water application rate of […] (converted). After the test plants had been kept in the greenhouse under optimum growth conditions for about 3 weeks, the activity of the preparations was rated visually in comparison to untreated controls. For example, 100% activity=the plants have died, 0% activity=like control plants.
(§2) Here, the observed effects on selected crop plants are stated in comparison to the untreated controls (values in %).

The next data set relates to Triticum aestivum. Nature of the data set: Post-emergence crop plant compatibility. The method, then: as §1, §2
The test system of the next data set is Oryza sativa. Put plainly: Post-emergence crop plant compatibility. The method, then: as §1, §2
The subject of the next data set is Zea mays. Put plainly: Post-emergence crop plant compatibility. The method, then:
as §1, §2

Another data set concerns Setaria viridis. Nature of the data set: Post-emergence herbicidal action. Particulars: 504 h, read-out: Setaria viridis (efficacy in %); for pest or weed control at 5 g/ha: application rate 5 g/ha; for pest or weed control at 20 g/ha: application rate 20 g/ha. The procedure:
as §1, with “plants. Tables A1 to A14 below show the effects of selected compounds of the general formula (I) according to Tables I.1 to I.34 on various harmful plants and at an application rate corresponding to 20 g/ha and less, which were obtained by the experimental procedure mentioned above.” for “plants.”

Another data set has as its system Amaranthus retroflexus. Nature of the data set: Post-emergence herbicidal action. To be noted: Amaranthus retroflexus, 504 h, read-out: Amaranthus retroflexus (efficacy in %); for pest or weed control at 5 g/ha: application rate 5 g/ha; for pest or weed control at 20 g/ha: application rate 20 g/ha. The method, then: as §1, with “plants. Tables A1 to A14 below show the effects of selected compounds of the general formula (I) according to Tables I.1 to I.34 on various harmful plants and at an application rate corresponding to 20 g/ha and less, which were obtained by the experimental procedure mentioned above.” for “plants.”

The subject of another data set is Abutilon theophrasti. Nature of the data set: Post-emergence herbicidal action. Particulars: Abutilon theophrasti, 504 h, read-out: Abutilon theophrasti (efficacy in %); for pest or weed control at 5 g/ha: application rate 5 g/ha; for pest or weed control at 20 g/ha: application rate 20 g/ha. The procedure:
as §1, with “plants. Tables A1 to A14 below show the effects of selected compounds of the general formula (I) according to Tables I.1 to I.34 on various harmful plants and at an application rate corresponding to 20 g/ha and less, which were obtained by the experimental procedure mentioned above.” for “plants.”

The subject of another data set is Digitaria sanguinalis. Nature of the data set: Post-emergence herbicidal action. To be noted: 504 h, read-out: Digitaria sanguinalis (efficacy in %); for pest or weed control at 20 g/ha: application rate 20 g/ha. The method, then: as §1, with “plants. Tables A1 to A14 below show the effects of selected compounds of the general formula (I) according to Tables I.1 to I.34 on various harmful plants and at an application rate corresponding to 20 g/ha and less, which were obtained by the experimental procedure mentioned above.” for “plants.”

The next data set has as its system Matricaria inodora. Put plainly: Post-emergence herbicidal action. Particulars: Tripleurospermum inodorum, 504 h, application rate 20 g/ha, read-out: Matricaria inodora (efficacy in %). The method, then: as §1, with “plants. Tables A1 to A14 below show the effects of selected compounds of the general formula (I) according to Tables I.1 to I.34 on various harmful plants and at an application rate corresponding to 20 g/ha and less, which were obtained by the experimental procedure mentioned above.” for “plants.”

In a further data set the test system is Polygonum convolvulus. Put plainly: Post-emergence herbicidal action. Particulars: Fallopia convolvulus, 504 h, read-out: Polygonum convolvulus (efficacy in %); for pest or weed control at 5 g/ha: application rate 5 g/ha; for pest or weed control at 20 g/ha: application rate 20 g/ha. The method, then: as §1, with “plants. Tables A1 to A14 below show the effects of selected compounds of the general formula (I) according to Tables I.1 to I.34 on various harmful plants and at an application rate corresponding to 20 g/ha and less, which were obtained by the experimental procedure mentioned above.” for “plants.”

The next data set concerns Stellaria media. Nature of the data set: Post-emergence herbicidal action. The procedure: as §1, with “plants. Tables A1 to A14 below show the effects of selected compounds of the general formula (I) according to Tables I.1 to I.34 on various harmful plants and at an application rate corresponding to 20 g/ha and less, which were obtained by the experimental procedure mentioned above.” for “plants.”

In the next data set the test system is Viola tricolor. Put plainly: Post-emergence herbicidal action. To be noted: Viola tricolor, 504 h, read-out: Viola tricolor (efficacy in %); for pest or weed control at 5 g/ha: application rate 5 g/ha; for pest or weed control at 20 g/ha: application rate 20 g/ha. The procedure:
as §1, with “plants. Tables A1 to A14 below show the effects of selected compounds of the general formula (I) according to Tables I.1 to I.34 on various harmful plants and at an application rate corresponding to 20 g/ha and less, which were obtained by the experimental procedure mentioned above.” for “plants.”

Another data set concerns Echinochloa crus-galli. Put plainly: Post-emergence herbicidal action. To be noted: Echinochloa crus-galli, 504 h, read-out: Echinochloa crus-galli (efficacy in %); for pest or weed control at 20 g/ha: application rate 20 g/ha. The method, then:
as §1, with “plants. Tables A1 to A14 below show the effects of selected compounds of the general formula (I) according to Tables I.1 to I.34 on various harmful plants and at an application rate corresponding to 20 g/ha and less, which were obtained by the experimental procedure mentioned above.” for “plants.”

The test system of another data set is Veronica persica. Nature of the data set: Post-emergence herbicidal action. Particulars: Veronica persica, 504 h, read-out: Veronica persica (efficacy in %); for pest or weed control at 5 g/ha: application rate 5 g/ha; for pest or weed control at 20 g/ha: application rate 20 g/ha. The method, then:
as §1, with “plants. Tables A1 to A14 below show the effects of selected compounds of the general formula (I) according to Tables I.1 to I.34 on various harmful plants and at an application rate corresponding to 20 g/ha and less, which were obtained by the experimental procedure mentioned above.” for “plants.”

The next data set deals with Avena fatua. Put plainly: Post-emergence herbicidal action. Particulars: application rate 20 g/ha. The method, then: as §1, with “plants. Tables A1 to A14 below show the effects of selected compounds of the general formula (I) according to Tables I.1 to I.34 on various harmful plants and at an application rate corresponding to 20 g/ha and less, which were obtained by the experimental procedure mentioned above.” for “plants.”

A further data set deals with Pharbitis purpurea. Put plainly: Post-emergence herbicidal action. To be noted: Ipomoea purpurea, 504 h, read-out: Pharbitis purpurea (efficacy in %). The procedure: as §1, with “plants. Tables A1 to A14 below show the effects of selected compounds of the general formula (I) according to Tables I.1 to I.34 on various harmful plants and at an application rate corresponding to 20 g/ha and less, which were obtained by the experimental procedure mentioned above.” for “plants.”

A further data set concerns Alopecurus myosuroides. Nature of the data set: Post-emergence herbicidal action. The procedure: as §1, with “plants. Tables A1 to A14 below show the effects of selected compounds of the general formula (I) according to Tables I.1 to I.34 on various harmful plants and at an application rate corresponding to 20 g/ha and less, which were obtained by the experimental procedure mentioned above.” for “plants.”

Molecules are shown by their SMILES.

As to `CCOC(=O)C(C)Oc1ncccc1Sc1cc(-n2c(=O)cc(C(F)(F)F)n(N)c2=O)c(F)cc1Cl` (centres unmarked) [I.2-442, Ethyl 2-{[3-({5-[3-amino-2,6-dioxo-4-(trifluoromethyl)-3,6-dihydropyrimidin-1(2H)-yl]-2-chloro-4-fluorophenyl}sulfanyl)pyridin-2-yl]oxy}propanoate], the “Glycine max (efficacy in %)” value in the data set with Glycine max came out at 10%. The “Triticum aestivum (efficacy in %)” value in the data set on Triticum aestivum (application rate 5 g/ha) is 20%. Further, the “Oryza sativa (efficacy in %)” value with Oryza sativa (application rate 5 g/ha) came out at 0%. Further, the entries for the “Zea mays (efficacy in %)” value in the data set on Zea mays (application rate 1.25 g/ha) and in the data set with Zea mays (application rate 5 g/ha) were 10% and 20%, respectively. Besides, the pest or weed control at 5 g/ha in the data set on Setaria viridis, in the data set with Amaranthus retroflexus, in the data set with Abutilon theophrasti, with Polygonum convolvulus, in the data set on Viola tricolor and with Veronica persica was 100% throughout. Moreover, the pest or weed control at 20 g/ha in the data set on Setaria viridis stood at 100%; in the data set on Amaranthus retroflexus it was 100%; with Abutilon theophrasti it was 100%; with Digitaria sanguinalis, 100%; with Matricaria inodora, 90%; in the data set on Polygonum convolvulus it was 100%. The pest or weed control at 20 g/ha with Viola tricolor, with Echinochloa crus-galli and in the data set on Veronica persica was 100% each time. Further, the “Stellaria media (efficacy in %)” value in the data set on Stellaria media (application rate 5 g/ha) came to 80%; in the data set with Stellaria media (application rate 20 g/ha) it was 100%.
In the case of `Nn1c(C(F)(F)F)cc(=O)n(-c2cc(Sc3cccnc3OCC(=O)OCc3ccccc3)c(Cl)cc2F)c1=O` [I.1-457, Benzyl {[3-({5-[3-amino-2,6-dioxo-4-(trifluoromethyl)-3,6-dihydropyrimidin-1(2H)-yl]-2-chloro-4-fluorophenyl}sulfanyl)pyridin-2-yl]oxy}acetate], the “Triticum aestivum (efficacy in %)” value in the data set with Triticum aestivum (application rate 1.25 g/ha) is given as 20%. The “Oryza sativa (efficacy in %)” value in the data set with Oryza sativa (application rate 1.25 g/ha) is 0%. The “Zea mays (efficacy in %)” value in the data set on Zea mays (application rate 1.25 g/ha) is 20%. Further, the pest or weed control at 5 g/ha with Setaria viridis, in the data set on Amaranthus retroflexus, with Abutilon theophrasti, with Digitaria sanguinalis (application rate 5 g/ha), in the data set on Polygonum convolvulus and in the data set with Pharbitis purpurea (application rate 5 g/ha) was 100% throughout. Also, the pest or weed control at 5 g/ha turned out to be 100% in the data set with Viola tricolor, 80% in the data set on Echinochloa crus-galli (application rate 5 g/ha) and 100% with Veronica persica. In addition, the pest or weed control at 20 g/ha in the data set on Setaria viridis is 100%; in the data set with Amaranthus retroflexus, 100%; in the data set on Abutilon theophrasti, 100%; with Digitaria sanguinalis, 100%; in the data set on Matricaria inodora it was 90%; in the data set on Polygonum convolvulus, 100%. The pest or weed control at 20 g/ha with Pharbitis purpurea (application rate 20 g/ha), in the data set on Viola tricolor, with Echinochloa crus-galli and in the data set on Veronica persica was 100% throughout. Moreover, in the data set with Avena fatua, the “Avena fatua (efficacy in %)” value was 80%. In addition, the “Alopecurus myosuroides (efficacy in %)” value in the data set with Alopecurus myosuroides (application rate 5 g/ha) and in the data set with Alopecurus myosuroides (application rate 20 g/ha) was 80% in each case.
